The text below walks through data of patent US8614021B2, “Agents for enhanced charge transport across microbial membranes” (The United States of America as represented by the …, priority 2010, dated 2013).

The conditions of data set [1]: DMSO; value abstracted from reference (Woo et al. JACS 2005); cited from earlier work.
Data set [2] is described as follows: UV-Vis absorption and photoluminescence (PL) spectroscopy in solvents of varying polarity. Conditions: for η (quantum efficiency): relative to a fluorescein standard at pH 12.
From the text: General photophysical and solvatochromatic features of the neutral (DSSN, DSBN) and charged (DSSN+, DSBN+) versions of each chromophore were probed by using UV-Vis absorption and photoluminescence (PL) spectroscopies.

Like-named read-outs stand apart in the source and are kept apart here.

Turning to `ICCCCCCN(CCCCCCI)c1ccc(C=Cc2ccc(C=Cc3ccc(N(CCCCCCI)CCCCCCI)cc3)cc2)cc1` [DSBN, 1,4-bis(4′-(N,N-bis(6″-iodohexyl)amino)styryl)benzene], the “εmax (molar extinction coefficient at λmax)” value in data set [1] is reported as 7.8 Lmol^−1cm^−1 × 10^−4; in data set [2] (THF), 8.5 Lmol^−1cm^−1 × 10^−4; in data set [2] (toluene), 8.4 Lmol^−1cm^−1 × 10^−4. Further, the λabs in data set [2] (DMSO) is recorded as 419 nm; in data set [2] (THF) it was 410 nm; in data set [2] (toluene) it was 410 nm. The λem in data set [2] (DMSO) amounted to 516 nm; in data set [2] (THF) it was 466 nm; in data set [2] (toluene), 454 nm. For the same compound, the “η (quantum efficiency)” value in data set [2] (DMSO) was determined as 0.81; in data set [2] (THF), 0.92; in data set [2] (toluene), 0.98.
